Experimental findings from paper PMC4628560 (Nature cell biology, 2015) are described below.

The Kd is the equilibrium constant for the complex coming apart. Read a high Kd as weaker binding.

The structures appear in SMILES notation. Like-named read-outs stand apart in the source and are kept apart here.

The target of test [1] is T1, 6-phosphogluconate dehydrogenase (6PGD) (Homo sapiens, UniProt P52209).
T1 sequence (P52209 1-483): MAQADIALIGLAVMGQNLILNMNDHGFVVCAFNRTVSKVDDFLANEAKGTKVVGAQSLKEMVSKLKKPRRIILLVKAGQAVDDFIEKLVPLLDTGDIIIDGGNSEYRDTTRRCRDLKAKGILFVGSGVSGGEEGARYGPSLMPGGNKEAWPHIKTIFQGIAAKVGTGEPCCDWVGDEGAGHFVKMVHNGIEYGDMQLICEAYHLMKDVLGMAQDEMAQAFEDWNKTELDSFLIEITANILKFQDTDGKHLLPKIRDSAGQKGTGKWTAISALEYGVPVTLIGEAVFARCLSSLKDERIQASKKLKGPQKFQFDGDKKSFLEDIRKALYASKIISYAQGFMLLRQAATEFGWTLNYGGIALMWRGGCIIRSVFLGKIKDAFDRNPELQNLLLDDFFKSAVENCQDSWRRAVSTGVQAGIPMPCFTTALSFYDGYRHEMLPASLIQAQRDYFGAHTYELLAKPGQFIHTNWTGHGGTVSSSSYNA
As to the kind of experiment: tryptophan fluorescence-based binding assay with purified human 6PGD.

Test [2] has as its target T1, 6-phosphogluconate dehydrogenase (6PGD). Described as above. The source holds these as a separate data set.

As for `COc1cc(O)c2c(c1)C(=O)c1cc(C)cc(O)c1C2=O` [Physcion, 1,8-Dihydroxy-3-methoxy-6-methyl-anthraquinone], the Kd in test [1] is 26 µM. Turning to `COc1cccc2c1C(=O)c1c(O)cccc1C2=O` [S3, 1-Hydroxy-8-methoxy-anthraquinon], binding in test [2] was put at a Kd of 17.1 µM.
